The results in this text go back to patent publication US20250129021A1, “SMALL MOLECULE PROTEIN SYNTHESIS MODULATORS” (Interdict Bio, Inc., priority 2023, published 2025).

Each structure is given as a SMILES string.

Type in all cases: biochemical
The subject of one test is MYC. In words: In vitro transcription-translation (IVTT) assay, MYC reporter. As to conditions: HeLa S3 lysate, 2 hrs at 30° C. From the text:
(§1) All reporter constructs have been cloned into the pT7CFE1-CHis plasmid (ThermoFisher #88860) using Gibson assembly procedures (NEB #E2611L). The parental pT7CFE1-CHis plasmid contains an EMCV IRES at the 5′UTR for translation initiation, a multiple-cloning site (MCS) for gene insertion, an optional C-terminal His-epitope tag, and polyA sequence in the 3′UTR to regulate mRNA stability. All reporters are designed to be inserted at the MCS to include a red fluorescent protein (mCherry), P2A self-cleaving peptide which releases the preceding mCherry protein product, and a fusion open reading frame containing a 3×FLAG epitope, a peptide sequence of interest (TEST), and green fluorescent protein (sfGFP).
(§2) Construct Plasmid Preparation: All plasmids are isolated from MACH1 cells (ThermoFisher) grown overnight in ampicillin-containing luria broth, and purified using ZymoPure Express Plasmid Midiprep Kit (Zymo Research). Constructs are sequenced verified and diluted to a working concentration of 110 ng/μL.
(§3) HeLa S3 Lysate Preparation: HeLa S3 cell pellets are acquired from Ipracell/Ipratech (Belgium) and shipped as 4 mL frozen cell pellets on dry ice for storage at −80° C. until use. The procedure for lysate preparation is as follows. Prepare 1× Lysis Buffer, cold and stored on ice:
(§4) Each preparation takes 8 cell pellets (4 ml packed volume each, approximately 1.0×10^9 cells per pellet). Thaw cell pellets from −80° C. on ice for 90 mins. Lay pellets horizontally on top of the ice and rotate every 30 mins to ensure even thawing. Once thawed, add 4 mL of cold lysis buffer to each pellet, and using a serological pipet, gently pipet up and down to break up clumps. Incubate resuspended cells in ice for an additional 30 mins (plunged into ice). During 30 min incubation, rinse and RNase-zap (Ambion) glass dounces (use loose pestle “A”), gently dry and place on ice until needed. Prepare RNase-free Eppendorf tubes for spinning and for batch storage. Add batch labels to 1.5-1.7 mL RNase-free microcentrifuge tubes (labeling scheme below). Each batch will have an extra 1.5-1.7 mL RNase-free microcentrifuge tube for 40 μL of lysate, label the top of this tube (labeling scheme below). After 30 min incubation, transfer all 8 mL of cell pellet to dounce. Cell lysis is complete after douncing 100 times. Aliquot cell lysis into 1.5-1.7 mL temporary-microcentrifuge tubes. Place tubes in centrifuge with “fins” out, and spin at 1,200×g for 5 mins. After the first spin use a 1 mL pipet to resuspend each tube and repeat spin. This acts as an additional lysis step, is more vigorous and increases lysate yield. During second spin get liquid N2 and a fresh conical tube on ice. After spin is complete, transfer supernatant (lysate) from microcentrifuge tubes into the 50 mL conical tube and keep on ice. Repeat steps 10-14 for all other cell pellets until completed. Once all cell lysate has been transferred to the 50 mL conical tube pipet to mix so the solution is homogenous. Transfer 1 mL of lysate into batch-labeled microcentrifuge tubes and flash freeze in liquid nitrogen. Be sure to pipet up and down to mix throughout transfer step. Place all tubes in the […] for long-term storage.
(§5) In vitro transcription-translation assay setup: Each assay includes a master mix containing lysate and shared components, a 96-well plate containing compound titrations for testing, a 96-well DNA plate with reporter constructs to be tested, 96-well skirted PCR plates, and 96-well flat-bottom, black, fluorescent assay plates. […]

In another test the test system is CCND1. In words: In vitro transcription-translation (IVTT) assay, CCND1 reporter. Particulars: HeLa S3 lysate, 2 hrs at 30° C.
Description: as §1, §2, §3, §4, §5

Another test deals with MCL-1. In words: In vitro transcription-translation (IVTT) assay, MCL-1 reporter. As to conditions: HeLa S3 lysate, sfGFP/mCherry ratio, 2 hrs at 30° C.
Description: as §1, §2, §3, §4, §5

Setting [1] is: IVTT assay, MYC reporter, normalized sfGFP/mCherry ratio, half-log dilutions 30 μM-0.1 μM.

Usually IC50 stands for the point on the concentration scale where inhibition reaches its midpoint. Consider `CNC(=O)O[C@@H]1[C@@H](O)CN[C@@H]1Cc1ccc(-c2cn(-c3cc4ccc(O)cc4oc3=O)nn2)cc1` [V193432, (2R,3S,4S)-4-hydroxy-2-(4-(1-(7-hydroxy-2-oxo-2H-chromen-3-yl)-1H-1,2,3-triazol-4-yl)benzyl)pyrrolidin-3-yl methylcarbamate], for which the IC50 in the test with MYC (setting [1]) was below 10 µM. Take `COc1ccc(C[C@H]2NC[C@H](O)[C@H]2OC(=O)NCCn2cnc3ccccc32)cc1` [V188090, (2R,3S,4S)-4-hydroxy-2-[(4-methoxyphenyl)methyl]pyrrolidin-3-yl N-[2-(1,3-benzodiazol-1-yl)ethyl]carbamate]: the IC50 in the test on MYC (sfGFP/mCherry ratio) and in the test on CCND1 (sfGFP/mCherry ratio) was above 30 µM in each case. For `O=C(NCCc1ccncc1)O[C@@H]1[C@@H](O)CN[C@@H]1Cc1ccc(-c2cn(Cc3cn[nH]c3)nn2)cc1` [V187948, (2R,3S,4S)-4-hydroxy-2-({4-[1-(1H-pyrazol-4-ylmethyl)-1,2,3-triazol-4-yl]phenyl}methyl)pyrrolidin-3-yl N-[2-(pyridin-4-yl)ethyl]carbamate], the IC50 with MYC (sfGFP/mCherry ratio), with CCND1 (sfGFP/mCherry ratio) and with MCL-1 was below 10 µM throughout. Turning to `COc1ccc(C[C@H]2NC[C@H](O)[C@H]2OC(=O)NCC2CNC2)cc1` [V187599, (2R,3S,4S)-4-hydroxy-2-[(4-methoxyphenyl)methyl]pyrrolidin-3-yl N-(azetidin-3-ylmethyl)carbamate], the IC50 is above 30 µM in the test with MYC (sfGFP/mCherry ratio) and 10 to 20 µM with MCL-1. As for `COc1ccc(C[C@H]2NC[C@H](O)[C@H]2OC(=O)NC[C@H]2CNC[C@@H]2O)cc1` [V188114, (2R,3S,4S)-4-hydroxy-2-[(4-methoxyphenyl)methyl]pyrrolidin-3-yl N-{[(3R,4R)-4-hydroxypyrrolidin-3-yl]methyl}carbamate], the IC50 in the test on MYC (sfGFP/mCherry ratio) was 20 to 30 µM; with CCND1 (sfGFP/mCherry ratio), above 30 µM; in the test with MCL-1, 10 to 20 µM. Consider `COc1ccc(C[C@H]2NC[C@H](O)[C@H]2OC(=O)NC[C@H]2CNC[C@H]2O)cc1` [V188115, (2R,3S,4S)-4-hydroxy-2-[(4-methoxyphenyl)methyl]pyrrolidin-3-yl N-{[(3R,4S)-4-hydroxypyrrolidin-3-yl]methyl}carbamate], for which the IC50 with MYC (sfGFP/mCherry ratio) is above 30 µM; in the test with CCND1 (sfGFP/mCherry ratio), above 30 µM; in the test with MCL-1, 10 to 20 µM.

For `[H]/N=C(/N)c1cccc(CNC(=O)O[C@@H]2[C@@H](O)CN[C@@H]2Cc2ccc(OC)cc2)c1` [Cmpd V187989], the IC50 in the test with CCND1 (sfGFP/mCherry ratio) and in the test with MCL-1 was below 10 µM in each case. As for `COc1ccc(C[C@H]2NC[C@H](O)[C@H]2OC(=O)NCCN[C@@H]2CCNC2)cc1` [V188073, (2R,3S,4S)-4-hydroxy-2-[(4-methoxyphenyl)methyl]pyrrolidin-3-yl N-{2-[(3R)-pyrrolidin-3-ylamino]ethyl}carbamate], the figures for the IC50 in the test on MYC (sfGFP/mCherry ratio), in the test with CCND1 (sfGFP/mCherry ratio) and with MCL-1 were 10 to 20 µM, 20 to 30 µM and 10 to 20 µM, respectively. For `O=C(NCC[C@H]1CCCO1)O[C@@H]1[C@@H](O)CN[C@@H]1Cc1ccc(-c2cncs2)cc1` [V193641, (2R,3S,4S)-4-hydroxy-2-(4-(thiazol-5-yl)benzyl)pyrrolidin-3-yl (2-((R)-tetrahydrofuran-2-yl)ethyl)carbamate], the concentration for half-maximal inhibition (IC50) with MYC (setting [1]) was below 10 µM.

Regarding `COc1ccc(C[C@H]2NC[C@H](O)[C@H]2OC(=O)N[C@H](C)c2ccccc2)cc1` [V191970, (2R,3S,4S)-4-hydroxy-2-[(4-methoxyphenyl)methyl]pyrrolidin-3-yl N-[(1R)-1-phenylethyl]carbamate], the IC50 in the test with MYC (setting [1]) and in the test on CCND1 (IVTT) was above 30 µM each time. On to `COc1ccc(C[C@H]2NC[C@H](O)[C@H]2OC(=O)NC[C@@H]2CNC[C@@H]2O)cc1` [Cmpd V188116], for which the IC50 is 20 to 30 µM in the test with MYC (sfGFP/mCherry ratio), above 30 µM with CCND1 (sfGFP/mCherry ratio) and 10 to 20 µM in the test on MCL-1. On to `O=C(NCCc1ccncc1)O[C@@H]1[C@@H](O)CN[C@@H]1Cc1ccc(-c2cn(-c3ccc(Cl)cc3)nn2)cc1` [V187950, (2R,3S,4S)-2-({4-[1-(4-chlorophenyl)-1,2,3-triazol-4-yl]phenyl}methyl)-4-hydroxypyrrolidin-3-yl N-[2-(pyridin-4-yl)ethyl]carbamate], for which the IC50 was 10 to 20 µM in the test with MYC (sfGFP/mCherry ratio), below 10 µM in the test on CCND1 (sfGFP/mCherry ratio) and below 10 µM with MCL-1. `O=C(NCCc1cn[nH]c1)O[C@@H]1[C@@H](O)CN[C@@H]1Cc1ccc(-c2cncs2)cc1` [V193646, (2R,3S,4S)-4-hydroxy-2-(4-(thiazol-5-yl)benzyl)pyrrolidin-3-yl (2-(1H-pyrazol-4-yl)ethyl)carbamate]: the IC50 in the test on MYC (setting [1]) was below 10 µM.

Take `COc1ccc(C[C@H]2NC[C@H](O)[C@H]2NC(=O)OCc2ccccc2)cc1` [Cmpd V187864]: the IC50 in the test on MYC (sfGFP/mCherry ratio), in the test on CCND1 (sfGFP/mCherry ratio) and in the test with MCL-1 was above 30 µM throughout. `O=C(NCCc1cnoc1)O[C@@H]1[C@@H](O)CN[C@@H]1Cc1ccc(-c2cncs2)cc1` [V193647, (2R,3S,4S)-4-hydroxy-2-(4-(thiazol-5-yl)benzyl)pyrrolidin-3-yl (2-(isoxazol-4-yl)ethyl)carbamate]: the half-inhibitory concentration (IC50) in the test with MYC (setting [1]) was below 10 µM.

`COc1ccc(C[C@H]2NC[C@H](O)[C@H]2OC(=O)NC[C@@H]2CNC[C@H]2O)cc1` [V188093, (2R,3S,4S)-4-hydroxy-2-[(4-methoxyphenyl)methyl]pyrrolidin-3-yl N-{[(3S,4S)-4-hydroxypyrrolidin-3-yl]methyl}carbamate]: the IC50 was 20 to 30 µM in the test on MYC (sfGFP/mCherry ratio) and above 30 µM in the test on CCND1 (sfGFP/mCherry ratio).

In the case of `O=C(NCC[C@@H]1CCOC1)O[C@@H]1[C@@H](O)CN[C@@H]1Cc1ccc(-c2cncs2)cc1` [V193642, (2R,3S,4S)-4-hydroxy-2-(4-(thiazol-5-yl)benzyl)pyrrolidin-3-yl (2-((R)-tetrahydrofuran-3-yl)ethyl)carbamate], in the test with MYC (setting [1]), the IC50 is below 10 µM. On the same count and under the same terms, with `CC(C)CCNC(=O)O[C@@H]1[C@@H](O)CN[C@@H]1Cc1ccc(-c2cncs2)cc1` [V193648, (2R,3S,4S)-4-hydroxy-2-(4-(thiazol-5-yl)benzyl)pyrrolidin-3-yl isopentylcarbamate] the figure was below 10 µM; with `O=C(NCC[C@H]1CCOC1)O[C@@H]1[C@@H](O)CN[C@@H]1Cc1ccc(-c2cncs2)cc1` [V193643, (2R,3S,4S)-4-hydroxy-2-(4-(thiazol-5-yl)benzyl)pyrrolidin-3-yl (2-((S)-tetrahydrofuran-3-yl)ethyl)carbamate], below 10 µM. `COc1ccc(C[C@H]2NC[C@H](O)[C@H]2OC(=O)NCCC2CNC2)cc1` [V187600, (2R,3S,4S)-4-hydroxy-2-[(4-methoxyphenyl)methyl]pyrrolidin-3-yl N-[2-(azetidin-3-yl)ethyl]carbamate]: the figures for the IC50 with MYC (sfGFP/mCherry ratio) and in the test on MCL-1 were 10 to 20 µM and below 10 µM, respectively. In the case of `COc1ccc(C[C@H]2NC[C@H](O)[C@H]2OC(=O)NC[C@@H]2CCN(C)C2)cc1` [V188109, (2R,3S,4S)-4-hydroxy-2-[(4-methoxyphenyl)methyl]pyrrolidin-3-yl N-{[(3S)-1-methylpyrrolidin-3-yl]methyl}carbamate], the IC50 was 10 to 20 µM with MYC (sfGFP/mCherry ratio) and above 30 µM in the test with CCND1 (sfGFP/mCherry ratio). As for `O=C(NCC[C@H]1C[C@@H](O)C1)O[C@@H]1[C@@H](O)CN[C@@H]1Cc1ccc(-c2cncs2)cc1` [V193644, (2R,3S,4S)-4-hydroxy-2-(4-(thiazol-5-yl)benzyl)pyrrolidin-3-yl (2-((1s,3S)-3-hydroxycyclobutyl)ethyl)carbamate], the IC50 in the test with MYC (setting [1]) is below 10 µM. For `O=C(NCC[C@H]1C[C@H](O)C1)O[C@@H]1[C@@H](O)CN[C@@H]1Cc1ccc(-c2cncs2)cc1` [V193645, (2R,3S,4S)-4-hydroxy-2-(4-(thiazol-5-yl)benzyl)pyrrolidin-3-yl (2-((1r,3R)-3-hydroxycyclobutyl)ethyl)carbamate], the IC50 with MYC (setting [1]) is below 10 µM.
